Results on 1 compound are retold here after patent US20190021976A1, “COMPOSITION FOR PREVENTING, IMPROVING OR TREATING PHOTOAGING OF SKIN COMPRISING DHPV” (SUNGKWANG MEDICAL FOUNDATION, priority 2016, published 2019).

Data set [1] has as its system PFN1. In words: Western blot of PFN1 expression in UV-irradiated human skin cells. The class given is cell-based. Particulars: 0.1 J/cm^2 UV, DHPV 0.5, 1 nM, FIG. 2. Here is the method:
(§1) First, aging was induced by irradiation with 0.1 J/cm^2 UV on human skin cells (hypodermis and epidermis were separated using HaCaT cell line purchased from ATCC and human body derived Foreskin, and primary cell culture was used). Next, DHPV, a metabolite of cacao, prepared in 1-1 was treated 0.5, 1 nM, respectively, and cells were obtained.
The expression level of PFN1 as a novel aging marker of epidermal cells was confirmed with Western blot by the same method as the above method except using anti-PFN1 (Abcam, ab118984) antibody instead of anti-involucrin (Santacruz, sc28557) antibody and HRP-combined goat anti-mouse IgG (1:3000; sc 2005, SantaCruz) instead of HRP-combined goat anti-rabbit IgG (1:1000; sc 2004, SantaCruz).
Background: A western blot detects proteins with antibodies after separation by electrophoresis.

Data set [2] deals with IVL (involucrin). In words: Western blot of IVL (involucrin) expression in UV-irradiated human skin cells. The class given is cell-based. Here is the method: as §1
The expression level of IVL (involucrin) which is one of aging markers of epidermal cells was confirmed by Western blot. Cells were degraded using cell dissolution buffer containing protease inhibitor cocktail kit (P3100-005; GenDEPOT, Barker, Tex.), and phosphatase inhibitor (sc-45065; Santa Cruz Biotechnology, Santa Cruz, Calif.) (#9803; Cell SignalingTechnology, Danvers, Mass.). The aliquot containing 25 ug of cell lysates was separated by electrophoresis on SDS-polyacrylamide gel, and then transferred to nitrocellulose membrane (Amersham, Buckinghamshire, UK) for 180 min at 75 V and […] on a transfer buffer (25 mM Tris, 192 mM glycine, 20% [v/v] methanol [pH 8.3]). The membrane was blocked with PBS of 3% (w/v) BSA containing 0.1% (v/v) Tween-20 for 60 min, and then cultured with anti-involucrin (Santacruz, sc28557) antibody. HRP-combined goat anti-rabbit IgG (1:1000; sc 2004, SantaCruz) was used as a secondary antibody. ECL lumi Femto solution A/B (Dogen, Seoul, Korea) was used to develop blots.

In data set [3] the test system is HaCaP cell line and hypodermal cells isolated from human derived foreskin. In words: Biostability: cell viability (Ez-cytox). The class given is cell-based. The settings on record: FIG. 5. Here is the method: In order to evaluate DHPV biostability, HaCaP cell line and hypodermal cells isolated from human derived foreskin were inoculated (2×10^4 cell each) and cultured on the 24 well plate and stabilized. Then, the cells were cultured in serum free media for 24 hrs and 48 hrs.

The test system of data set [4] is AP-1. As to the kind of experiment: AP-1 luciferase reporter gene assay in UVB-irradiated hypodermis fibroblasts. Type of data set: cell-based, human. The settings on record: DHPV treatment, FIG. 3B. Here is the method:
(§2) First, human derived hypodermis fibroblasts (hypodermis and epidermis were separated using human body derived Foreskin and the primary cell culture was used) were cultured in the DMEM medium containing 10% FBS (fetal bovine serum), and then cultured in serum free media for 24 hrs and UVB was irradiated. Next, cells were cultured in a medium containing serum or a medium containing 1-41M DHPV for 24 hrs, thereby collecting cells.
AP-1 was obtained by inoculating pGF-AP1-mCMV-EF1-Puro vector (System Biosciences, CA) and a package vector, pMD2.0G and psPAX (Addgene Inc, Cambridge, Mass.) to HEK293T cell and in 36 hrs, viral particles were obtained using […] injection filter, in order to measure activity changes by UVB irradiation through luciferase reporter gene assay. Next, it was inoculated to hypodermis fibroblasts, and cells that injection with puromycin (Sigma, MO, […]) was successes were obtained. Then the activity of AP-1 was measured by using luciferase assay kit (Promega, Madison, Wis.) after culturing cells in the same manner with the hypodermal fibroblast culturing method and treating with DHPV.
(In a reporter assay the amount or activity of a reporter protein is the signal.)

Data set [5] deals with Involucrin (IVL) DNA promoter region. As to the kind of experiment: Methylation specific PCR of IVL promoter in UV-irradiated human skin cells. Type of data set: cell-based. The settings on record: FIG. 4. The text has this:
The aging was induced by irradiation with 0.1 J/cm^2 UV on human skin cells (hypodermis and epidermis were separated using HaCaT cell line purchased from ATCC and human body derived Foreskin, and primary cell culture was used). DNA of the cells was extracted using NucleoSin® Tissue Kit (Macherey-Nagel, Düren, Germany). The extracted DNA was quantified using Nano Drop and its quality was confirmed. In the extracted DNA, unmethylated Cytosine residues were converted to Uracil residues by treating Bisulfite using EZ DNA Methylation-Lightning™ Kit (Zymoresearch, CA, USA) for methylation analysis.
Distilled water was added to Bisulfited DNA 100 ng, primer pair (20 pmole) respectively, 1 uL, TaKaRa EpiTaq HS (5 U/μl) 0.25 uL, 10× EpiTaq PCR Buffer (Mg2^+ free) 5 uL, 25 mM MgCl2 5 uL, dNTP Mixture (2.5 mM each) 6 uL to be 50 uL of the final volume, and then after reacting for […] at 98° C., the procedure of 10 sec at 98° C., 1 min at 55° C., and 30 sec at 72° C. as 40 cycles was repeated and reacted. Then, after extending for 5 min at 72° C., the result was analyzed in 2% (w/v) agarose gel.
Methylation of IVL promoter by DHPV and relative methylation tendency were analyzed by methylation specific PCR which can relatively compare methylation or non-methylation of genes according to band intensity on the electrophoresis. […]

Data set [6] deals with MMP-1. As to the kind of experiment: MMP-1 real time PCR in UVB-irradiated human derived hypodermis fibroblasts. The class given is cell-based. Particulars: medium containing DHPV for 24 hrs, FIG. 3A. The procedure:
as §2
In order to confirm changes of mRNA expression level of MMP-1, mRNA was obtained using RNAiso Plus (Takara Bio Inc., Shiga, Japan). Next, CDNA was synthesized and prepared using PrimeScript™ 1st Plus (Takara Bio Inc., Shiga, Japan), and real time PCR was conducted using IQ SYBR (Bio-Rad Laboratories). The primer sequences used in conducting PCR were as same as the following Table 1.
Background: Real-time PCR tracks product formation cycle by cycle.

For the compound `O=C1CCC(Cc2ccc(O)c(O)c2)O1` (centres unmarked) [DHPV, 5-(3′,4′-Dihydroxyphenyl)-Γ-valerolactone], in data set [1], the “expression level of the PFN1 marker” value is “increased in a concentration-dependent manner”. Besides, in data set [2] (based on skin cells), the “concentration exhibiting excellent skin aging-preventing function” value is reported as 1 nM. In addition, in data set [2] (human skin cells, 0.1 J/cm^2 UV, DHPV 0.5, 1 nM, FIG. 2), the “expression level of the IVL marker (amount of UV-increased IVL)” value is “reduced in a concentration-dependent manner”. In addition, the “biostability (cell viability)” value in data set [3] is “shown similarly to that of control group”. Moreover, the “activity of AP-1” value in data set [4] was “recovered similarly to the control group”. Further, in data set [5] (0.1 J/cm^2 UV, methylation specific PCR), the “methylation of Involucrin (IVL) DNA promoter region induced by photoaging” value was “inhibited methylation”. In addition, the “intensity of methylation band” value in data set [5] (UV treated cells when treating DHPV, electrophoresis) is “decreased”. Also, the “mRNA expression of MMP-1” value in data set [6] is “recovered similarly to the control group”.
